Test results as given in patent EP4603105A1, “PHARMACEUTICAL COMPOSITION CONTAINING CYCLIC COMPOUND HAVING SELECTIVE KRAS INHIBITORY EFFECT AGAINST HRAS AND NRAS” (CHUGAI SEIYAKU KABUSHIKI KAISHA, priority 2022, dated 2024).
pIC50, pKd: −log10 of the molar value. Like-named read-outs stand apart in the source and are kept apart here.

Key:
[1] = target: GDP-bound KRAS wild-type protein (Homo sapiens, UniProt P01116); assay: Binding to KRAS by surface plasmon resonance (SPR), dissociation constant KD
In short: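 Compound binding is evaluated by SPR single-cycle kinetics, with concentrations added intermittently from low to high for 75 s each. Target surfaces carry GDP-loaded biotinylated Avi-RAS at about 100–300 RU, regenerated after each cycle; temperature 30°C. A 1:1 binding model gives KD.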

[2] = target: GDP-bound NRAS wild-type protein (Homo sapiens, UniProt P01111); assay: Binding to NRAS by surface plasmon resonance (SPR), KD and KD ratio to KRAS
In short: (§1)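 Captured GDP-RAS (~100–300 RU) was exposed to increasing compound concentrations, 75 s per step, in running buffer with 10 µM GDP, 10 mM MgCl2 and 4% DMSO at pH 7.4.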

HRAS wild-type protein = HRAS wild-type protein (Homo sapiens, UniProt P01112); assay: Binding to HRAS by surface plasmon resonance (SPR), KD and KD ratio to KRAS
In short: as §1

[3] = test system: human lung cancer strain NCI-H441; assay: NCI-H441 cell proliferation inhibitory activity (CellTiter-Glo, 4 days); type: cell-based; details: read-out: NCl-H441 IC50
In short: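 Step one: dispense the test compound in serial DMSO dilutions. Step three: add the reagent and measure […].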

[4] = ratio of KD for GDP-bound NRAS wild-type protein to KD for KRAS
[5] = ratio of KD for HRAS wild-type protein to KD for KRAS
[6] = Single Cycle Kinetics, 1:1 binding model
[7] = ratio of KD with respect to GDP-bound NRAS wild-type protein to KD with respect to KRAS
[8] = ratio of KD with respect to HRAS wild-type protein to KD with respect to KRAS
[9] = 50% proliferation inhibitory concentration, four days

Chain of HRAS wild-type protein (P01112 whole entry): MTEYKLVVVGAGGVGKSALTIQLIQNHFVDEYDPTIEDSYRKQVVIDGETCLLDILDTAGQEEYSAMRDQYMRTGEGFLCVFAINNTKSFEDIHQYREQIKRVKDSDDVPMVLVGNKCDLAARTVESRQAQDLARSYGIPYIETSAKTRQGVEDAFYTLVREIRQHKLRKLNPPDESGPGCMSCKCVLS
Chain of GDP-bound KRAS wild-type protein (P01116 1-188 isoform P01116-2): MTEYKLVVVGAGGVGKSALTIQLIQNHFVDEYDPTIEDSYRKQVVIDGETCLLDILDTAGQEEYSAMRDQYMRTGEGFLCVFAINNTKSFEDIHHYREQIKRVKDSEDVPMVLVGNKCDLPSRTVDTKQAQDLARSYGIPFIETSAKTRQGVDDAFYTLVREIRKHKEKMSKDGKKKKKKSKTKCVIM
Chain of GDP-bound NRAS wild-type protein (P01111 whole entry): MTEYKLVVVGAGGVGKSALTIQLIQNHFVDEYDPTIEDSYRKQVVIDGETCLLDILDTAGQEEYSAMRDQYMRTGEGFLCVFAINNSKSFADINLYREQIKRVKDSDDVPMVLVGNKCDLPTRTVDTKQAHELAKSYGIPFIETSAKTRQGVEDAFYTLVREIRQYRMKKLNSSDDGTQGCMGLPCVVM

pKd ([1]; Single Cycle Kinetics)	pIC50 ([3]; NCI-H441 cells, 4 days)	pKd ([1]; 1:1 binding model)	pKd [1, 6]	pIC50 [3, 9]	SMILES	NRAS /KRAS [2, 4]	HRAS /KRAS (HRAS wild-type protein; [5])	NRAS /KRAS [2, 7]	HRAS /KRAS (HRAS wild-type protein; [8])
8.44	6.98	–	–	–	C=C(C)C[C@H]1C(=O)N(C)[C@H](C(=O)N(C)C)CC(=O)N(C)[C@@H](CCC)C(=O)N[C@@H]([C@@H](C)CC)C(=O)N2CCC[C@H]2C(=O)N(C)[C@H]2C/C=C\CCN(C2=O)[C@@H](Cc2ccc(C(F)(F)F)cc2)C(=O)N(C)CC(=O)N[C@@H](CCc2cc(F)c(C(F)(F)F)c(F)c2)C(=O)N2C[C@H](OCC)C[C@H]2C(=O)N(C)C2(CCC2)C(=O)N1C [PP3339]	A (a compound having 10 or more and less than 20 is denoted as A)	A (a compound having 10 or more and less than 20 is denoted as A)	–	–
10.28	8.03	–	–	–	CCC[C@H]1C(=O)N[C@@H](C2CCCC2)C(=O)N(C)CC(=O)N(C)[C@H]2C/C=C\CCN(C2=O)[C@@H](Cc2ccc(C)cc2)C(=O)N(C)CC(=O)N[C@@H](CCc2cc(F)c(C(F)(F)F)c(F)c2)C(=O)N2CC3(CC3)C[C@H]2C(=O)N(C)C2(CCC2)C(=O)N(C)[C@@H](C2CCCC2)C(=O)N(C)[C@H](C(=O)N(C)C)CC(=O)N1C [PP3306]	A (a compound having 10 or more and less than 20 is denoted as A)	B (a compound having 3 or more and less than 10 is denoted as B)	–	–
9.01	7.40	–	–	–	CCCO[C@@H]1C[C@H]2C(=O)NC3(CC(C)(C)C3)C(=O)N(C)[C@@H](C3CCCC3)C(=O)N(C)[C@H](C(=O)N(C)CC)CC(=O)N(C)[C@@H](COCC)C(=O)N[C@@H]([C@@H](C)CC)C(=O)N(C3CC3)CC(=O)N(C)[C@H]3C/C=C\CCN(C3=O)[C@@H](Cc3ccc(C)cc3)C(=O)N(C)CC(=O)N[C@@H](CCc3ccc(C(F)(F)F)c(OC)c3)C(=O)N2C1 [PP3466]	A (a compound having 10 or more and less than 20 is denoted as A)	B (a compound having 3 or more and less than 10 is denoted as B)	–	–
9.59	8.19	–	–	–	CCC[C@H]1C(=O)N[C@@H](C2CCCC2)C(=O)N(C)CC(=O)N(C)[C@H]2C/C=C\CCN(C2=O)[C@@H](Cc2ccc(C)cc2)C(=O)N(C)CC(=O)N[C@@H](CCc2ccc(C(F)(F)F)c(OC)c2)C(=O)N2CC3(CC3)C[C@H]2C(=O)N(C)C2(CCC2)C(=O)N(C)[C@@H]([C@@H](C)CC)C(=O)N(C)[C@H](C(=O)N(C)C)CC(=O)N1C [PP3318]	A (a compound having 10 or more and less than 20 is denoted as A)	A (a compound having 10 or more and less than 20 is denoted as A)	–	–
9.68	8.15	–	–	–	CCC[C@H]1C(=O)N[C@@H]([C@@H](C)CC)C(=O)N2CCC[C@H]2C(=O)N(C)[C@H]2C/C=C\CCN(C2=O)[C@@H](Cc2ccc(C)cc2)C(=O)N(C)CC(=O)N[C@@H](CCc2ccc(C(F)(F)F)c(Cl)c2)C(=O)N2CC[C@H](OC)[C@H]2C(=O)N(C)C2(CCC2)C(=O)N(C)[C@@H](C2CCCC2)C(=O)N(C)[C@H](C(=O)N(C)C)CC(=O)N1C [PP3235]	A (a compound having 10 or more and less than 20 is denoted as A)	A (a compound having 10 or more and less than 20 is denoted as A)	–	–
8.60	7.10	–	–	–	CCCO[C@@H]1C[C@H]2C(=O)NC3(CC(C)(C)C3)C(=O)N(C)[C@@H](C3CCCC3)C(=O)N(C)[C@H](C(=O)N(C)CC)CC(=O)N[C@@H](COCC)C(=O)N[C@@H]([C@@H](C)CC)C(=O)N(C3CC3)CC(=O)N(C)[C@H]3C/C=C\CCN(C3=O)[C@@H](Cc3ccc(C)cc3)C(=O)N(C)CC(=O)N[C@@H](CCc3ccc(C(F)(F)F)c(Cl)c3)C(=O)N2C1 [PP3429]	A (a compound having 10 or more and less than 20 is denoted as A)	A (a compound having 10 or more and less than 20 is denoted as A)	–	–

More lines, now with the values behind:

SMILES	pKd ([1]; Single Cycle Kinetics)	pIC50 ([3]; NCI-H441 cells, 4 days)	pKd ([1]; 1:1 binding model)	pKd [1, 6]	pIC50 [3, 9]	NRAS /KRAS [2, 4]	HRAS /KRAS (HRAS wild-type protein; [5])	NRAS /KRAS [2, 7]	HRAS /KRAS (HRAS wild-type protein; [8])
CCC[C@H]1C(=O)N[C@@H]([C@@H](C)CC)C(=O)N(C)CC(=O)N(C)[C@H]2C/C=C\CCN(C2=O)[C@@H](Cc2ccc(C)cc2)C(=O)N(C)CC(=O)N[C@@H](CCc2ccc(C(F)(F)F)c(OC)c2)C(=O)N2C[C@H](OCC)C[C@H]2C(=O)NC2(CC(C)(C)C2)C(=O)N(C)[C@@H](CC2CCC2)C(=O)N(C)[C@H](C(=O)N(C)C)CC(=O)N1C [PP2753]	–	7.28	9.01	–	–	A (a compound having 10 or more and less than 20 is denoted as A)	B (a compound having 3 or more and less than 10 is denoted as B)	–	–
CCCOC[C@H]1C(=O)N[C@@H]([C@@H](C)CC)C(=O)N(C)CC(=O)N(C)[C@H]2C/C=C\CCN(C2=O)[C@@H](Cc2ccc(C(F)(F)F)cc2)C(=O)N(C)CC(=O)N[C@@H](CCc2cc(F)c(C(F)(F)F)c(F)c2)C(=O)N2C[C@H](OCC)C[C@H]2C(=O)NC2(CCCC2)C(=O)N(C)[C@@H](C2CCCC2)C(=O)N(C)[C@H](C(=O)N2CCCC2)CC(=O)N1C [PP1399]	–	–	–	9.72	7.73	–	–	A (a compound having 10 or more and less than 20 is denoted as A)	A (a compound having 10 or more and less than 20 is denoted as A)
CC[C@H](C)[C@@H]1NC(=O)[C@H](COC)N(C)C(=O)C[C@@H](C(=O)N(C)C)N(C)C(=O)[C@H](C2CCCC2)N(C)C(=O)C2(CC(C)(C)C2)NC(=O)[C@@H]2C[C@@H](OC(C)C)CN2C(=O)[C@H](CCc2ccc(Cl)c(Cl)c2)NC(=O)CN(C)C(=O)[C@H](CC2CCCCC2)N2CC/C=C\C[C@@H](C2=O)N(C)C(=O)CN(C2CC2)C1=O [PP2513]	–	6.52	8.59	–	–	A (a compound having 10 or more and less than 20 is denoted as A)	A (a compound having 10 or more and less than 20 is denoted as A)	–	–
CC[C@H](C)[C@@H]1NC(=O)[C@H](CC)N(C)C(=O)C[C@@H](C(=O)N(C)C)N(C)C(=O)[C@H](C2CCCC2)N(C)C(=O)C2(CCC2)NC(=O)[C@@H]2C[C@H](C)CN2C(=O)[C@H](CCc2cc(F)c(C(F)(F)F)c(F)c2)NC(=O)CN(C)C(=O)[C@H](CC2CCCCC2)N2CC/C=C\C[C@@H](C2=O)N(C)C(=O)CN(C)C1=O [PP1471]	–	–	–	9.60	7.32	–	–	A (a compound having 10 or more and less than 20 is denoted as A)	A (a compound having 10 or more and less than 20 is denoted as A)
CCO[C@@H]1C[C@H]2C(=O)NC3(CCC3)C(=O)N(C)[C@@H](C3CCCC3)C(=O)N(C)[C@H](C(=O)N(C)C)CC(=O)N(C)[C@@H](CC(C)C)C(=O)N[C@@H]([C@@H](C)CC)C(=O)N(C)CC(=O)N(C)[C@H]3C/C=C\CCN(C3=O)[C@@H](CC3CCCCC3)C(=O)N(C)CC(=O)N[C@@H](CCc3cc(F)c(C(F)(F)F)c(F)c3)C(=O)N2C1 [PP1467]	–	–	–	9.92	7.95	–	–	A (a compound having 10 or more and less than 20 is denoted as A)	A (a compound having 10 or more and less than 20 is denoted as A)
CCOC[C@H]1C(=O)N[C@@H]([C@@H](C)CC)C(=O)N(C)CC(=O)N(C)[C@H]2C/C=C\CCN(C2=O)[C@@H](CC2CCC(F)(F)CC2)C(=O)N(C)CC(=O)N[C@@H](CCc2ccc(C(F)(F)F)c(OC)c2)C(=O)N2C[C@@H](C)C[C@H]2C(=O)NC2(CC(C)(C)C2)C(=O)N(C)[C@@H](C(CC)CC)C(=O)N(C)[C@H](C(=O)N(C)C)CC(=O)N1C [PP2458]	–	7.09	8.89	–	–	A (a compound having 10 or more and less than 20 is denoted as A)	A (a compound having 10 or more and less than 20 is denoted as A)	–	–
CCCOC[C@H]1C(=O)N[C@@H]([C@@H](C)CC)C(=O)N2CCC[C@H]2C(=O)N(C)[C@H]2C/C=C\CCN(C2=O)[C@@H](Cc2ccc(C)cc2)C(=O)N(C)CC(=O)N[C@@H](CCc2ccc(C(F)(F)F)c(OC)c2)C(=O)N2C[C@@H](C)C[C@H]2C(=O)N(C)C2(CCC2)C(=O)N(C)[C@@H](C2CCCC2)C(=O)N(C)[C@H](C(=O)N(C)C)CC(=O)N1C [PP2369]	–	8.35	10.21	–	–	A (a compound having 10 or more and less than 20 is denoted as A)	B (a compound having 3 or more and less than 10 is denoted as B)	–	–
CCCOC[C@H]1C(=O)N[C@@H]([C@@H](C)CC)C(=O)N(C)CC(=O)N(C)[C@H]2C/C=C\CCN(C2=O)[C@@H](CC2CCC(F)(F)CC2)C(=O)N(C)CC(=O)N[C@@H](CCc2cc(F)c(C(F)(F)F)c(F)c2)C(=O)N2C[C@H](OCC)C[C@H]2C(=O)NC2(CC(C)(C)C2)C(=O)N(C)[C@@H](C(CC)CC)C(=O)N(C)[C@H](C(=O)N(C)C)CC(=O)N1C [PP2472]	–	7.37	9.24	–	–	A (a compound having 10 or more and less than 20 is denoted as A)	A (a compound having 10 or more and less than 20 is denoted as A)	–	–
CCC[C@H]1C(=O)N[C@@H](CC(C)C)C(=O)N2C[C@@H](OC)C[C@H]2C(=O)N(C)[C@H]2C/C=C\CCN(C2=O)[C@@H](Cc2ccc(C)cc2)C(=O)N(C)CC(=O)N[C@@H](CCc2cc(F)c(C(F)(F)F)c(F)c2)C(=O)N2C[C@H](OCC)C[C@H]2C(=O)NC2(CC(C)(C)C2)C(=O)N(C)[C@@H](C2CCCC2)C(=O)N(C)[C@H](C(=O)N(C)C)CC(=O)N1C [PP2553]	–	6.92	8.47	–	–	A (a compound having 10 or more and less than 20 is denoted as A)	B (a compound having 3 or more and less than 10 is denoted as B)	–	–
